Counter-ions that a name gives are not always drawn.

One experiment deals with T1, human Endothelial Differentiation Gene 1 (EDG1), S1P1 receptor (Homo sapiens, UniProt P21453).
T1 construct: TEV protease site; Gal4-VP16 transcription factor; expressed in transfected cells; host or cells: EDG1-bla/U2OS (Tango GPCR-bla U2OS parental cell line)
T1 sequence (P21453 whole entry, the tested form may be a part): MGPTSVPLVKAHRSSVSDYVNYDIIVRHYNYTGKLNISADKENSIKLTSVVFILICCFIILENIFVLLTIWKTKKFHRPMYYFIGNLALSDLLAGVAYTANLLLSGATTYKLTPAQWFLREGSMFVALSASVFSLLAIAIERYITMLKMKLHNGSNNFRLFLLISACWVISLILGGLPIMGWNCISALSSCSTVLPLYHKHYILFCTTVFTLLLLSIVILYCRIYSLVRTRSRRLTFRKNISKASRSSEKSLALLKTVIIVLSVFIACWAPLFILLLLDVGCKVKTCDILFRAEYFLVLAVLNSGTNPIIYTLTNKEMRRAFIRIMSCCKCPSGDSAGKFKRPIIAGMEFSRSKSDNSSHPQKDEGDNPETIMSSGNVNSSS
Put plainly: S1P1 Assay (Tango EDG1-bla/U2OS beta-lactamase reporter, agonist dose response). It counts as cell-based. As to conditions: EDG1-bla/U2OS cells, blue/green emission ratio, 10 point dose response, free base or salt form; read-out: pEC50 (S1P1 assay) (converted). As for the experimental part: Recombinant EDG1-bla/U2OS cells (contain the human Endothelial Differentiation Gene 1 (EDG1) linked to a TEV protease site and a Gal4-VP16 transcription factor stably integrated into the Tango GPCR-bla U2OS parental cell line) were harvested from growth medium and passaged into assay medium (Invitrogen Freestyle Expression Medium). The cells were starved for 24 hours at 37° C., 5% CO2, harvested and resuspended in assay medium at a density of ˜200,000 cells/ml. All test compounds were dissolved in DMSO at a concentration of 10 mM and were prepared in 100% DMSO to provide 10 point dose response curves. Test compounds in the free base or in a salt form were prepared by Velocity11 Bravo automation (Agilent) were added to wells in columns 2-11 and 13-22; DMSO was added to wells in columns 12 and 23 as unstimulated controls and assay medium was added to wells in columns 1 and 24 as cell-free controls. An S1P1 agonist was added to wells in row 2, columns 2-11 as stimulated controls and test compounds were added to wells in row 2, columns 13-22 and rows 3-15, columns 2-11/13-22 (row 1 and 16 were empty and not used). Compounds in solution were added to the assay plate (Greiner 781090) using an Echo (Labcyte) dose-response program (50 nl/well). The unstimulated and cell-free controls were loaded with 50 nl/well pure DMSO to ensure that the DMSO concentration was constant across the plate for all assays. 50 μl of the cell suspension was added to each well in columns 2-23 of the plate (˜10,000 cells per well). 50 μl of assay medium was added to each well in the cell-free controls (columns 1 and 24). The cells were incubated overnight at 37° C./5% CO2.
(§1) 10 μl of 6× substrate mixture (LiveBLAzer™-FRET B/G substrate (CCF4-AM) Cat # K1096 from Invitrogen, Inc.) was added to each well using Bravo automation and the plates incubated at room temperature for 2 h in the dark. The plate was finally read on EnVision using one excitation channel (409 nm) and two emission channels (460 nm and 530 nm).
(§2) The blue/green emission ratio (460 nm/530 nm) was calculated for each well, by dividing the background-subtracted Blue emission values by the background-subtracted Green emission values. The dose response curve is based on sigmoidal dose-response model. All ratio data was normalized based upon the maximum emission ratio of positive control and minimum emission ratio of negative control (DMSO) on each plate. The intrinsic activity (IA) of each compound is defined as relative response normalised to a reference compound, whose maximum response is defined as 100% after curve fitting.
`CCc1c(CN2CC(C(=O)O)C2)cccc1-c1nnc(-c2ccc(OC(C)C)c(C(F)(F)F)c2)s1` [Example 2, 1-[(2-ethyl-3-{5-[4-[(1-methylethyl)oxy]-3-(trifluoromethyl)phenyl]-1,3,4-thiadiazol-2-yl}phenyl)methyl]-3-azetidinecarboxylic acid]: the EC50 is < 1 nM.

As to `CCc1c(CCN2CC(C(=O)O)C2)cccc1-c1nnc(-c2ccc(OC(C)C)c(Cl)c2)s1` [Example 6, 1-{2-[3-(5-{3-chloro-4-[(1-methylethyl)oxy]phenyl}-1,3,4-thiadiazol-2-yl)-2-ethylphenyl]ethyl}-3-azetidinecarboxylic acid trifluoroacetate], the EC50 is < 1 nM.

Consider `CCc1c(CN2CC(C(=O)O)C2)cccc1-c1nsc(-c2ccc(OC(C)C)c(C(F)(F)F)c2)n1` [Example 19, 1-[(2-ethyl-3-{5-[4-[(1-methylethyl)oxy]-3-(trifluoromethyl)phenyl]-1,2,4-thiadiazol-3-yl}phenyl)methyl]-3-azetidinecarboxylic acid], for which the EC50 is < 1 nM.

Turning to `CCc1c(CCN2CCC(C(=O)O)CC2)cccc1-c1nsc(-c2ccc(OC(C)C)c(C(F)(F)F)c2)n1` [Example 21, 1-[2-(2-ethyl-3-{5-[4-[(1-methylethyl)oxy]-3-(trifluoromethyl)phenyl]-1,2,4-thiadiazol-3-yl}phenyl)ethyl]-4-piperidinecarboxylic acid], the EC50 is < 1 nM.

Consider `CCc1c(CCN2CC(C(=O)O)C2)cccc1-c1nsc(-c2ccc(OC(C)C)c(C(F)(F)F)c2)n1` [Example 22, 1-[2-(2-ethyl-3-{5-[4-[(1-methylethyl)oxy]-3-(trifluoromethyl)phenyl]-1,2,4-thiadiazol-3-yl}phenyl)ethyl]-3-azetidinecarboxylic acid], for which the EC50 is < 1 nM.

In the case of `CCc1c(CCN2CC(C(=O)O)C2)cccc1-c1nsc(-c2ccc(OC(C)C)c(Cl)c2)n1` [Example 23, 1-{2-[3-(5-{3-chloro-4-[(1-methylethyl)oxy]phenyl}-1,2,4-thiadiazol-3-yl)-2-ethylphenyl]ethyl}-3-azetidinecarboxylic acid trifluoroacetate], the EC50 is < 1 nM.

For `CCc1c(CCN2CCC(C(=O)O)CC2)cccc1-c1nsc(-c2ccc(OC(C)C)c(Cl)c2)n1` [Example 24, 1-{2-[3-(5-{3-chloro-4-[(1-methylethyl)oxy]phenyl}-1,2,4-thiadiazol-3-yl)-2-ethylphenyl]ethyl}-4-piperidinecarboxylic acid trifluoroacetate], the EC50 is < 1 nM.

For `CCc1c(CN2CC(C(=O)O)C2)cccc1-c1nsc(-c2ccc(OC(C)C)c(Cl)c2)n1` [Example 25, 1-{[3-(5-{3-chloro-4-[(1-methylethyl)oxy]phenyl}-1,2,4-thiadiazol-3-yl)-2-ethylphenyl]methyl}-3-azetidinecarboxylic acid trifluoroacetate], the EC50 was ≤ 10 nM.

`CCc1c(CN2CC(C(=O)O)C2)cccc1-c1nsc(-c2ccc(CC(C)C)c(C#N)c2)n1` [Example 27, 1-[(3-{5-[3-cyano-4-(2-methylpropyl)phenyl]-1,2,4-thiadiazol-3-yl}-2-ethylphenyl)methyl]-3-azetidinecarboxylic acid trifluoroacetate]: the EC50 is ≤ 10 nM.

Regarding `CCc1c(CCN2CCC(C(=O)O)CC2)cccc1-c1nsc(-c2ccc(CC(C)C)c(C#N)c2)n1` [Example 29, 1-[2-(3-{5-[3-cyano-4-(2-methylpropyl)phenyl]-1,2,4-thiadiazol-3-yl}-2-ethylphenyl)ethyl]-4-piperidinecarboxylic acid trifluoroacetate], the EC50 was < 1 nM.

Take `CCc1c(CN2CCC(C(=O)O)CC2)cccc1-c1cnc(-c2ccc(OC(C)C)c(C#N)c2)s1` [Example 35, 1-{[3-(2-{3-cyano-4-[(1-methylethyl)oxy]phenyl}-1,3-thiazol-5-yl)-2-ethylphenyl]methyl}-4-piperidinecarboxylic acid trifluoroacetate]: the EC50 was ≤ 10 nM.

`CCc1c(CCN2CCC(C(=O)O)CC2)cccc1-c1cnc(-c2ccc(OC(C)C)c(Cl)c2)s1` [Example 40, 1-{2-[3-(2-{3-chloro-4-[(1-methylethyl)oxy]phenyl}-1,3-thiazol-5-yl)-2-ethylphenyl]ethyl}-4-piperidinecarboxylic acid trifluoroacetate]: the EC50 was < 1 nM.

For the compound `CCc1c(CCN2CCC(C(=O)O)C2)cccc1-c1cnc(-c2ccc(OC(C)C)c(C#N)c2)s1` (stereo not shown) [Example 90], the EC50 is < 1 nM.

In the next experiment the target is T2, human Endothelial Differentiation G-protein Coupled Receptor 3 (EDG3), S1P3 receptor (Homo sapiens, UniProt Q99500).
T2 construct: expressed in transfected cells; host or cells: GeneBLAzer EDG3-Ga15-NFAT-bla HEK 293T
T2 sequence (Q99500 whole entry): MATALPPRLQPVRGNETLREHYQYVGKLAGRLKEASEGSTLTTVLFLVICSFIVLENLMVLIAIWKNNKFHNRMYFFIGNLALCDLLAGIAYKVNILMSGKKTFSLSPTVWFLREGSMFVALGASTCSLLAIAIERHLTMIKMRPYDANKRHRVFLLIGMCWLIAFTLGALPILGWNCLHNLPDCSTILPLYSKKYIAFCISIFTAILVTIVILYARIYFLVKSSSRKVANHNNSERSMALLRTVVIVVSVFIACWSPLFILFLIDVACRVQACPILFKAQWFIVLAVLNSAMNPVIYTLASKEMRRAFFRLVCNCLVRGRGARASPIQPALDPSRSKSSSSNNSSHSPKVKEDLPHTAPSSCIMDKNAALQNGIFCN
Put plainly: S1P3 Assay (GeneBLAzer EDG3-Ga15-NFAT-bla HEK 293T beta-lactamase reporter, agonist dose response). It counts as cell-based. The note with it: EDG3-Ga15-NFAT-bla HEK 293T cells, blue/green emission ratio, 10 point dose response, free base or salt form; read-out: pEC50 (S1P3 assay) (converted). As for the experimental part:
GeneBLAzer EDG3-Ga15-NFAT-bla HEK 293T cells (contain the human Endothelial Differentiation G-protein Coupled Receptor 3 (EDG3) and a beta-lactamase reporter gene under control of a NFAT response element and a promiscuous G Protein, Ga15, stably integrated into the GeneBLAzer Ga15-NFAT-bla HEK 293T cell line) were harvested from growth medium and suspended in assay medium (90% DMEM, 10% Charcoal-stripped FBS, 0.1 mM NEAA, 25 mM HEPES (pH 7.3), 100 U/ml penicillin, 100 μg/ml streptomycin) at a density of […]. All test compounds were dissolved in DMSO at a concentration of 10 mM and were prepared in 100% DMSO to provide 10 point dose response curves. Test compounds in the free base or in a salt form were prepared by Velocity 11 Bravo automation (Agilent) were added to wells in columns 2-11 and 13-22; DMSO was added to wells in columns 12 and 23 as unstimulated controls and assay medium was added to wells in columns 1 and 24 as cell-free controls. An S1P3 agonist was added to wells in row 2, columns 2-11 as stimulated controls and test compounds were added to wells in row 2, columns 13-22 and rows 3-15, columns 2-11/13-22 (row 1 and 16 were empty and not used). Compounds in solution were added to the assay plate (Greiner 781090) using an Echo (Labcyte) dose-response program (50 nl/well). The unstimulated and cell-free controls were loaded with 50 nl/well pure DMSO to ensure that the DMSO concentration was constant across the plate for all assays.
50 μl of the cell suspension was added to each well in columns 2-23 of the plate (˜10,000 cells per well). 50 μl of assay medium was added to each well in the cell-free controls (columns 1 and 24). The cells were incubated overnight at 37° C./5% CO2.
as §1, §2
As to `CCc1c(CN2CCC(C(=O)O)CC2)cccc1-c1nnc(-c2ccc(OC(C)C)c(Cl)c2)s1` [Example 3, 1-{[3-(5-{3-chloro-4-[(1-methylethyl)oxy]phenyl}-1,3,4-thiadiazol-2-yl)-2-ethylphenyl]methyl}-4-piperidinecarboxylic acid trifluoroacetate], the EC50 was > 3160 nM.

For `CCc1c(CN2CCC(C(=O)O)CC2)cccc1-c1nsc(-c2ccc(OC(C)C)c(C#N)c2)n1` [Example 16, 1-{[3-(5-{3-cyano-4-[(1-methylethyl)oxy]phenyl}-1,2,4-thiadiazol-3-yl)-2-ethylphenyl]methyl}-4-piperidinecarboxylic acid trifluoroacetate], the EC50 is > 10000 nM.

Regarding `CCc1c(CN2CCC(CC(=O)O)CC2)cccc1-c1nsc(-c2ccc(OC(C)C)c(C(F)(F)F)c2)n1` [Example 20, {1-[(2-ethyl-3-{5-[4-[(1-methylethyl)oxy]-3-(trifluoromethyl)phenyl]-1,2,4-thiadiazol-3-yl}phenyl)methyl]-4-piperidinyl}acetic acid], the EC50 was > 10000 nM.

As to `CCc1c(CN2CCC(C(=O)O)CC2)cccc1-c1nsc(-c2ccc(CC(C)C)c(C#N)c2)n1` [Example 28, 1-[(3-{5-[3-cyano-4-(2-methylpropyl)phenyl]-1,2,4-thiadiazol-3-yl}-2-ethylphenyl)methyl]-4-piperidinecarboxylic acid], the EC50 is > 10000 nM.

As to `CCc1c(CCN2CCC(C(=O)O)C2)cccc1-c1nsc(-c2ccc(OC(C)C)c(Cl)c2)n1` (stereo not shown) [Example 67], the EC50 is > 3160 nM.

With `CCc1c(CCN2CC[C@H](C(=O)O)C2)cccc1-c1nsc(-c2ccc(OC(C)C)c(Cl)c2)n1` [Example 68], the EC50 is > 3160 nM.

Take `CCc1c(CCN2CCC[C@H](C(=O)O)C2)cccc1-c1nsc(-c2ccc(OC(C)C)c(Cl)c2)n1` [Example 71]: the EC50 was > 3160 nM.

With `CCc1c(CN2CCC[C@H]2C(=O)O)cccc1-c1cnc(-c2ccc(OC(C)C)c(C#N)c2)s1` [Example 81, 1-{[3-(2-{3-cyano-4-[(1-methylethyl)oxy]phenyl}-1,3-thiazol-5-yl)-2-ethylphenyl]methyl}-L-proline trifluoroacetate], the EC50 is > 10000 nM.

Take `CCc1c(CN2C[C@H](O)C[C@H]2C(=O)O)cccc1-c1cnc(-c2ccc(OC(C)C)c(C#N)c2)s1` [Example 85]: the EC50 was > 10000 nM.

For the origin of these results see US8389508B2 (Glaxo Group Limited, priority 2010, dated 2013).
